Assay results published in ChEMBL document CHEMBL1149492, “Discovery of potent and stable conformationally constrained analogues of the MCH R1 antagonist SB-568849” (Bioorg Med Chem Lett, 2006).
pKi: −log10 of the molar value.

Tests used:
[1] = molecular target: Melanin-concentrating hormone receptor 1 (Homo sapiens, UniProt Q99705); test: Displacement of radiolabeled iodo-MCH from human MCHR1 expressed in HEK293 cells; assay type: cell-based
[2] = Stability in aqueous phosphate buffer at pH 7; assay type: physicochemical
Liver microsomes = test: Intrinsic clearance in human liver microsome; assay type: ADME

Sequence of Melanin-concentrating hormone receptor 1 (Q99705 whole entry): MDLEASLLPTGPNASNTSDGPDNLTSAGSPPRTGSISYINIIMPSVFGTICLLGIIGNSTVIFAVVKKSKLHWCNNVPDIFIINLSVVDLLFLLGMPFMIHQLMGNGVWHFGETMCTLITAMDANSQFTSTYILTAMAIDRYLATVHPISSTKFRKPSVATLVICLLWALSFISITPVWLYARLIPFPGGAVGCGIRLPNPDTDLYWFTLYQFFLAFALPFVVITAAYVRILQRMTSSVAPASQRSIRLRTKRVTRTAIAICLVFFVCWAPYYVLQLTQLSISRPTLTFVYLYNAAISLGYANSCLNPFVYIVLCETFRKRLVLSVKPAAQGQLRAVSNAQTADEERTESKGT

Structure (SMILES) | pKi [1] | further results
COc1cc(NC(=O)c2ccc(C3CCCCC3)cc2)ccc1OC12CCCN(CC1)C2 (centres undefined) | 7.30 | –
COc1cc(-n2nnc3ccc(Oc4ccccc4)cc3c2=O)ccc1OCCN1CCCC1 | 7.40 | –
COc1cc(-n2cnc3cc(-c4ccccc4)sc3c2=O)ccc1OCCN1CCCC1 | 7.70 | Stability [2]: Stable
CC(C)N(CCOc1ccc(N(C)C(=O)c2ccc3c(c2)CCc2ccccc2-3)cc1)C(C)C | 6.50 | –
COc1cc(N2C(=O)c3ccc(Oc4ccccc4)cc3C2=O)ccc1OCCN1CCCC1 | – | Activity [2]: Not Active
CC(C)N(CCOc1ccc(NC(=O)c2ccc3c(c2)C(=O)c2ccccc2-3)cc1)C(C)C | 6.70 | –
COc1cc(-n2nnc3cc(Oc4ccccc4)ccc3c2=O)ccc1OCCN1CCCC1 | 7.10 | –
COc1cc(-n2cnc3ccc(Oc4ccccc4)cc3c2=O)ccc1OCCN1CCCC1 | 6.50 | –
COc1cc(NC(=O)c2ccc(C3CCCCC3)cc2)ccc1OC1CCN(C)C1 (centres undefined) | 7.20 | –
COc1cc(NC(=O)c2ccc(C3CCCCC3)cc2)ccc1OC[C@@H]1CCCN1C | 7.40 | –
COc1cc(NC(=O)c2ccc(C3CCCCC3)cc2)ccc1O[C@H]1CCCC[C@@H]1N(C)C | 5.60 | –
COc1cc(-n2nnc3cc(-c4ccccc4)ccc3c2=O)ccc1OCCN1CCCC1 | 7.60 | Stability [2]: Stable; CL (Liver microsomes): < 1.5 mL/min/g
COc1cc(NC(=O)c2ccc(C3CCCCC3)cc2)ccc1OC[C@H]1CCCN1C | 7.10 | –
COc1cc(N2C(=O)c3ccc(Nc4ccccc4)cc3C2=O)ccc1OCCN1CCCC1 | 7.80 | Activity [2]: Not Active
COc1cc(-n2cnc3cc(-c4ccccc4)ccc3c2=O)ccc1OCCN1CCCC1 | 7.70 | Stability [2]: Stable; CL (Liver microsomes): < 1.5 mL/min/g
O=C(Nc1ccc(OCCN2CCCC2)cc1)c1ccc2c(c1)Cc1ccccc1-2 | 6.30 | –
COc1cc(N2C(=O)c3ccc(-c4ccccc4)cc3C2=O)ccc1OCCN(C(C)C)C(C)C | 6.90 | –
COc1cc(N(C)C(=O)c2ccc3oc4ccccc4c3c2)ccc1OCCN(C(C)C)C(C)C | 5.70 | –

Second part, led by results:

pKi [1] | Structure (SMILES) | further results
7.10 | CCN1CCN(c2ccc(NC(=O)c3ccc(C4CCCCC4)cc3)cc2OC)CC1 | –
6.10 | COc1cc(-n2cnc3sc(-c4ccccc4)cc3c2=O)ccc1OCCN1CCCC1 | –
5.60 | O=C(Nc1ccc(OCCN2CCCC2)cc1)c1ccc2oc3ccccc3c2c1 | –
6.00 | O=C(Nc1ccc(OCCN2CCCC2)cc1)c1ccc2c(c1)CCc1ccccc1-2 | –
6.40 | COc1cc(N2Cc3ccc(-c4ccccc4)cc3C2=O)ccc1OCCN(C(C)C)C(C)C | –
7.30 | COc1cc(-n2cnc3cc(Oc4ccccc4)ccc3c2=O)ccc1OCCN1CCCC1 | –
7.50 | COc1cc(N2C(=O)c3ccc(Sc4ccccc4)cc3C2=O)ccc1OCCN1CCCC1 | Activity [2]: Not Active
6.40 | CC(C)N(CCOc1ccc(N(C)C(=O)c2ccc3c(c2)Cc2ccccc2-3)cc1)C(C)C | –
6.00 | COc1cc(-n2cnc3ccc(-c4ccc(Cl)cc4)cc3c2=O)ccc1OCCN1CCCC1 | –
